This passage reports IC50, inhibition and Activity results from ChEMBL document CHEMBL1154071, “Studies towards the identification of putative bioactive conformation of potent vasodilator arylidene N-acylhydrazone derivatives” (Eur J Med Chem, 2009).

The subject of assay [1] is Aorta. Description: Vasorelaxant activity in endothelium-intact Wistar rat thoracic aortic ring assessed as inhibition of phenylephrine-induced contraction. It counts as functional, tissue-based.
In assay [2] the test system is Aorta. Description: Vasorelaxant activity in endothelium-denuded Wistar rat thoracic aortic ring assessed as inhibition of phenylephrine-induced contraction. It counts as functional, tissue-based.
The subject of assay [3] is Aorta. Description: Vasorelaxant activity in endothelium-denuded Wistar rat thoracic aortic ring assessed as inhibition of phenylephrine-induced contraction at 200 uM. It counts as functional.
Assay [4] relates to Aorta. Put plainly: Vasorelaxant activity in endothelium-intact Wistar rat thoracic aortic ring assessed as inhibition of phenylephrine-induced contraction at 200 uM. It counts as functional.
The subject of assay [5] is Aorta. Description: Vasorelaxant activity in endothelium-intact Wistar rat thoracic aortic ring assessed as inhibition of phenylephrine-induced contraction at 500 uM. It is filed as functional.
Assay [6] deals with Aorta. Put plainly: Vasorelaxant activity in endothelium-denuded Wistar rat thoracic aortic ring assessed as inhibition of phenylephrine-induced contraction at 500 uM. It counts as functional.
Assay [7] relates to Aorta. Description: Vasorelaxant activity in endothelium-intact Wistar rat thoracic aortic ring assessed as complete inhibition of phenylephrine-induced contraction at 20 uM in intact endothelium. It counts as functional, tissue-based.
The target in assay [8] is cGMP-dependent 3',5'-cyclic phosphodiesterase (Homo sapiens) (UniProt O00408). Put plainly: Inhibition of PDE2A up to 30 uM.
Sequence of cGMP-dependent 3',5'-cyclic phosphodiesterase (Homo sapiens) (O00408 whole entry): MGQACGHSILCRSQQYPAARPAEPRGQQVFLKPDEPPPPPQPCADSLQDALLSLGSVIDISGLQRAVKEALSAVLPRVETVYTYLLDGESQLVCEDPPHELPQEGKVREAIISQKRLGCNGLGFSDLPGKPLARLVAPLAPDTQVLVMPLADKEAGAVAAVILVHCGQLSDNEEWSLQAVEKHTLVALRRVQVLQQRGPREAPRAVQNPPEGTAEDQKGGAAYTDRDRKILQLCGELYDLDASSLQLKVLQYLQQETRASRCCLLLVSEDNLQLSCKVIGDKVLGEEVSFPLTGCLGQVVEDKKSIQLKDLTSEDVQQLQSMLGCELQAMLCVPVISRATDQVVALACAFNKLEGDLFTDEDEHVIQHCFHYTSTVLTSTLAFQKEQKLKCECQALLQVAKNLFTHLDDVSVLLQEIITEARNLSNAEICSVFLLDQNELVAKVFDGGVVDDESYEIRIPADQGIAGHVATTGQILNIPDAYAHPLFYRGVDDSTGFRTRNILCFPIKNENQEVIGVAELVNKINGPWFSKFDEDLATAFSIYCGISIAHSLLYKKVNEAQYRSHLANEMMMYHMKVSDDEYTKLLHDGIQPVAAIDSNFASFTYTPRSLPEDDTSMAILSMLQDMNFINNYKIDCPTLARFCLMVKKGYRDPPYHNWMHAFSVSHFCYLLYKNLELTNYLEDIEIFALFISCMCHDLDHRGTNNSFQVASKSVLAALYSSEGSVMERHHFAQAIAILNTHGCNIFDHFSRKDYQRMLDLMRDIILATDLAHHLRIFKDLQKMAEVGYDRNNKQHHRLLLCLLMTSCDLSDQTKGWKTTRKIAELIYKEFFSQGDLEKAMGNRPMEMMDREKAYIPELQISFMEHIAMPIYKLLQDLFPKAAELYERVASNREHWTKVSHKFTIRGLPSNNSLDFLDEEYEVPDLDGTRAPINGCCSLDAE
Assay [9] addresses T1, 3',5'-cyclic-AMP phosphodiesterase 4B (Homo sapiens, UniProt Q07343). Description: Inhibition of PDE4B up to 30 uM.
The target in assay [10] is cGMP-specific 3',5'-cyclic phosphodiesterase (Homo sapiens) (UniProt O76074). Put plainly: Inhibition of PDE5 up to 30 uM.
Assay [11] relates to Aorta. Put plainly: Vasorelaxant activity in endothelium-denuded Wistar rat thoracic aortic ring assessed as inhibition of phenylephrine-induced contraction at 100 uM. It is filed as functional.
Assay [12] has as its target T1, 3',5'-cyclic-AMP phosphodiesterase 4B. Description: Inhibition of PDE4B.

Activity calls are given as the source filed them. No cut-off for these calls is given here.

T1 sequence (Q07343 whole entry): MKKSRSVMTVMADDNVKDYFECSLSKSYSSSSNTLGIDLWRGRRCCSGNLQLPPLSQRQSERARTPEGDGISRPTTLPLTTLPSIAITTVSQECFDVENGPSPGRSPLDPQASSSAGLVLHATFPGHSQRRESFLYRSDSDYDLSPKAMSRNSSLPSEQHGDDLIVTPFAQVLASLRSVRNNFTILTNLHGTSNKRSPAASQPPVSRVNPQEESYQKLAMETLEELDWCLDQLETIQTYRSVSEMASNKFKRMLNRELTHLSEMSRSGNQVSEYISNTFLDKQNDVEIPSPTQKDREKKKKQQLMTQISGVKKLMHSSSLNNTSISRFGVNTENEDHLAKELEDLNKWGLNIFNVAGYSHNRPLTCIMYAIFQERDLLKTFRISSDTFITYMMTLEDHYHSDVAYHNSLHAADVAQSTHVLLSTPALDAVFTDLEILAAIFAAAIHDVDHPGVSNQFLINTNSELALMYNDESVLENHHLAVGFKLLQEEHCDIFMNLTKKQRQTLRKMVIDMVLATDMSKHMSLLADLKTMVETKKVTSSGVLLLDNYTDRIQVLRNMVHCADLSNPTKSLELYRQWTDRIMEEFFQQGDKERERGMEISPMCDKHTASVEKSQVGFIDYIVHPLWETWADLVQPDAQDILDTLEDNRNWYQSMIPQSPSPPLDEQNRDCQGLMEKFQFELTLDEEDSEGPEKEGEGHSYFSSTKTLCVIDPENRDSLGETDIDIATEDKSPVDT

As for `CN(/N=C/c1ccc[nH]1)C(=O)c1ccc2c(c1)OCO2`, the results for the IC50 with Aorta [1] and in the assay on Aorta [2] were 3.1 µM and 17.8 µM, respectively.

For `CN(/N=C/c1ccco1)C(=O)c1ccc2c(c1)OCO2`, the IC50 with Aorta [1] was 40.8 µM; with Aorta [2] it was 15.7 µM.

Turning to `O=C(N/N=C/c1ccc[nH]1)c1ccc2c(c1)OCO2`, the inhibition at 200 µM in the assay on Aorta [3] and in the assay with Aorta [4] was under 50% throughout.

`O=C(N/N=C/c1ccco1)c1ccc2c(c1)OCO2`: the inhibition at 500 µM in the assay with Aorta [5] and in the assay on Aorta [6] was under 50% throughout.

`CN(/N=C/c1ccccc1)C(=O)c1ccc2c(c1)OCO2`: the result with Aorta [7] was Active. Also, the IC50 was 3.5 µM in the assay with Aorta [1] and 11.1 µM in the assay with Aorta [2].

Consider `O=C(N/N=C/c1ccccc1)c1ccc2c(c1)OCO2`, for which the IC50 in the assay on Aorta [1] came out at 81 µM. Further, the inhibition at 500 µM with Aorta [5] is 70.7%; in the assay on Aorta [6], under 50%.

Take `O=C(N/N=C/c1cccs1)c1ccc2c(c1)OCO2`: the outcome in [8], in assay [9] and in assay [10] was inactive. The Activity result in the assay with Aorta [1] was “Dose-dependent effect”. The IC50 in the assay on Aorta [1] was determined as 74 µM. In the assay on Aorta [11], the inhibition at 100 µM was under 50%.

As to `CN(/N=C/c1cccs1)C(=O)c1ccc2c(c1)OCO2`, the IC50 in assay [12] is over 30 µM; in the assay on Aorta [1] it was 10.2 µM; in the assay on Aorta [2], 18.5 µM. Moreover, the outcome in [8] and in assay [10] was inactive. The Activity result in the assay on Aorta [1] was “Dose-dependent effect”.
